Data set [1] has as its system Mouse experimental autoimmune encephalomyelitis (EAE). Kind of data set: Mouse experimental autoimmune encephalomyelitis (EAE) model for multiple sclerosis. Conditions: scrambled control; for Peak Severity: score 0 to 5. It is filed as in vivo, mouse (CSJLF-1).
Data set [2] deals with leukocyte trafficking into the central nervous system of EAE mice. The data set can be described thus: Reduction of leukocyte trafficking into the central nervous system of EAE mice (immunostaining of sections). It is filed as in vivo, mouse (CSJLF1). Conditions: EAE experiment 4. How it is done:
The pieces were embedded in O.C.T. tissue freezing medium (Ted Pella Inc., Redding, Calif.) on dry ice and methylbutane. Four-micron frozen sections were cut and air dried overnight. The sections were fixed for three minutes in ice-cold acetone and then placed on a Dako Autostainer (Dako Corporation, Carpinteria, Calif.) and treated in the following steps: 5 minutes in 0.03% H2 O2, 5 minutes in 5% donkey serum diluted in PBS, 45 minutes in appropriately diluted primary antibody, 30 minutes in horseradish peroxidase-labeled donkey anti-rat secondary antibody (Jackson Laboratory, Bar Harbor, Me.). Sections were rinsed between treatments with PBS. All the antibodies used were rat anti-mouse from PharMingen (San Diego, Calif.), except BM-8, which was from Bachem Bioscience Inc. (King of Prussia, Pa.). The immunostaining was developed with DAB (Dako Corporation) and counterstained with hematoxylin.

Data set [3] relates to C8161 human melanoma cells. The data set can be described thus: Experimental metastasis assay, C8161 cells injected into athymic nude mice. Format: in vivo, human melanoma cells in athymic nude mice. How it is done:
To evaluate the role of integrin α4 in metastasis, experimental metastasis assays are performed by injecting 1×10^5 C8161 cells into the lateral tail vein of athymic nude mice. C8161 is a human melanoma cell line. […] Four-week-old female athymic nude mice (Harlan Sprague Dawley) are used. Animals are maintained under the guidelines of the NIH. Groups of 4-8 mice each are tested in experimental metastasis assays.
Treatment of C8161 cells with antisense oligonucleotide ISIS 27104, complementary to human integrin α4, is performed in the presence of the cationic lipid, LIPOFECTIN (Gibco/BRL, Gaithersburg, Md.). Cells are seeded in 60 mm tissue culture dishes at 10^6 cells/ml and incubated at 37° C. for 3 days, washed with Opti-MEM (Gibco/BRL) 3 times and 100 μl of Opti-MEM medium is added to each well. 0.5 μM oligonucleotide and 15 μg/ml LIPOFECTIN are mixed at room temperature for 15 minutes. 25 μl of the oligonucleotide-LIPOFECTIN mixture is added to the appropriate dishes and incubated at 37° C. for 4 hours. […] After 4 hours, 500 U/ml TNF-α is added to the appropriate wells and incubated for 18 hours at which time cells are removed from the plates, counted and injected into athymic nude mice. […]
After 4 weeks, mice are sacrificed, organs are fixed in Bouin's fixative and metastatic lesions on lungs are scored with the aid of a dissecting microscope.

The subject of data set [4] is human integrin α4. Kind of data set: Integrin α4 protein expression in A375 cells after electroporation of oligonucleotide (flow cytometry). It is filed as cell-based. How it is done: A375 cells were treated with ISIS 107245, 107248, 107252, 107255 and 107259 by electroporation at 175 volts, r=1, c=1000, 0.2 ml Opti-MEM, 1×10^6 cells /ml, 2 mm gap electrode using a BTX Electro Cell Manipulator 600 (Genetronics, San Diego Calif.). Oligonucleotide concentrations were 1, 3, 10 and 30 μM. Cells were harvested 24 hours after oligonucleotide treatment and strained with 2 ug/ml CD49d-FITC for flow cytometry as in the previous examples.
ISIS 107248 was compared directly to ISIS 27104 for ability to inhibit integrin α4 expression in A375 melanoma cells. Oligonucleotides were electroporated into cells as in the previous example.
A general note: Flow cytometry measures light scatter and fluorescence of single cells or particles in a stream.

In data set [5] the test system is human integrin α4. The data set can be described thus: Inhibition of human integrin α4 protein levels by antisense oligonucleotides (LIPOFECTIN, flow cytometry with CD49d-FITC) in A375 melanoma cells. Format: cell-based. Set-up: % Inhib.: tested at 200 nM.
A further data set relates to leukocyte migration. Particulars: 3 mg/kg oral; 24 hours after implantation; cited from earlier work.
In data set [6] the test system is dextran sulfate-mediated colitis in mice. Conditions: cited from earlier work.
The mark [7] stands for this setting: Table 24, A375 cells, lipofectin, as Example 8.

Consider 4 molecules from patent publication US6258790A, “Antisense modulation of integrin α4 expression” (Isis Pharmaceuticals, Inc., priority 1999, dated 2001).

A value given as a limit tells only on which side of the number the result lay.

With “17614 (GCCGACACCCGTTCGTTCGG; phosphorothioate, 2'-MOE/deoxy, further chemistry not given here) [compound 17614]”, in data set [1] (EAE Experiment 3, 1 mg/kg), the “Days to Onset” value came out at 16.86 days, the “Disease Incidence” value was 7/7 and the “Peak Severity” value stood at 2.14. Moreover, in data set [1] (EAE Experiment 4, 2 mg/kg SC), the “Days to Onset” value came out at 14.14 days, the “Disease Incidence” value was 7/7 and the “Peak Severity” value was 1.86. Besides, in data set [1] (EAE Experiment 5, 2 mg/kg SC), the “Days to Onset” value is 9 days, the “Disease Incidence” value was 6/7 and the “Peak Severity” value came out at 1.71. In data set [2], the “reduction of cellular influx, scrambled control” value is listed as “not effective in reducing cellular influx”.
Regarding “27104 (CCCAAGCCATGCGCTCTCGG; phosphorothioate, 2'-MOE, 5-methyl-C, further chemistry not given here) [compound 27104]”, in data set [3] (TNF-α treated cells), the “enhanced metastatic ability of C8161 from TNF-α treatment” value is “eliminates the enhanced metastatic ability”. Besides, the “metastatic potential of C8161 cells” value in data set [3] (cells treated with oligonucleotide before injection) was “decreases the metastatic potential”. Moreover, the “% Control” value in the data set on human integrin α4 [4] (Table 25, 1 nM as printed, 24 hours) stood at 86.2%; in the data set with human integrin α4 [4] (Table 25, 10 nM, 24 hours), 63.2%; in the data set with human integrin α4 [4] (Table 25, 30 nM, 24 hours), 35.3%; in the data set with human integrin α4 [4] (Table 26, 1 μM), 86.2%; in the data set on human integrin α4 [4] (Table 26, 3 μM) it was 63.2%; in the data set on human integrin α4 [4] (Table 26, 10 μM) it was 35.3%. The “% Control” value is 27.1% in the data set on human integrin α4 [4] (Table 26, 30 μM); 69% in the data set on human integrin α4 [5] (Table 4, 10 nM); 64% in the data set on human integrin α4 [5] (Table 4, 30 nM); 49% in the data set with human integrin α4 [5] (Table 4, 100 nM); 39% with human integrin α4 [5] (Table 4, 300 nM); 84% in the data set with human integrin α4 [5] (Table 6, 10 nM). Further, the “% Control” value turned out to be 82% with human integrin α4 [5] (Table 6, 30 nM); 59% in the data set on human integrin α4 [5] (Table 6, 100 nM); 37% with human integrin α4 [5] (Table 6, 300 nM); 69% with human integrin α4 [5] (setting [7]). The “% Inhib.” value was 13.8% in the data set with human integrin α4 [4] (Table 26, 1 μM); 36.8% with human integrin α4 [4] (Table 26, 3 μM); 64.7% in the data set on human integrin α4 [4] (Table 26, 10 μM); 72.9% with human integrin α4 [4] (Table 26, 30 μM); 31% with human integrin α4 [5] (Table 4, 10 nM); 36% in the data set on human integrin α4 [5] (Table 4, 30 nM). Also, the “% Inhib.” value in the data set with human integrin α4 [5] (Table 4, 100 nM) was 51%; in the data set on human integrin α4 [5] (Table 4, 300 nM (highest dose)), 61%; in the data set with human integrin α4 [5] (Table 6, 10 nM) it was 16%; with human integrin α4 [5] (Table 6, 30 nM), 18%; with human integrin α4 [5] (Table 6, 100 nM) it was 41%; in the data set on human integrin α4 [5] (Table 6, 300 nM (highest dose)), 63%. Further, the “% Inhib.” value with human integrin α4 [5] (setting [7]) amounted to 31%. Also, the “inhibition (Example 10)” value with human integrin α4 [5] (Example 10 assay, dose not stated) was no less than 40%. Also, the “inhibition (Example 11)” value in the data set on human integrin α4 [5] (Example 11 assay, dose not stated) is no less than 40%.
On to `COc1ccc2c(c1)c(CC(=O)O)c(C)n2C(=O)c1ccc(Cl)cc1` [Indomethacin], for which the “reduction in mean leukocyte count compared to vehicle control” value in the data set on leukocyte migration is recorded as 75-80%.
Regarding TGF-β, the “dextran sulfate-mediated colitis” value in data set [6] is listed as “protect against dextran sulfate-mediated colitis in mice”.
